Measured values: US7090853B2, “Noscapine derivatives as adjuvant compositions and methods of use thereof” (Emory University, priority 1999, dated 2006)

Legend:
[1] = target: bovine brain tubulin (Bos taurus, UniProt P81947+Q6B856); assay: Fluorescence titration of tubulin binding (Scatchard plot)
Procedure: Phosphocellulose purified bovine brain tubulin was employed throughout these biophysical experiments. Fluorescence titration for determining binding constants was performed according to Peyrot, V. et al., Biochemistry 31, 11125 (1992). […], at room temperature, 2 μM tubulin in 100 mM PIPES, 2 mM EGTA, 1 mM MgCl2 was excited at 278 nm, and the fluorescence emission spectra were recorded with bandwidths […]. The fluorescence emission intensity of noscapine at this excitation wavelength was negligible and at the concentration of noscapine used it gave no appreciable inner filter effect. The concentration of noscapine was raised in increments of 0.5 μM, until the decrease in the fluorescence intensity was saturated. The value of the dissociation constant and the number of sites were obtained from Scatchard plots using the equation, r/[L]free=n/K^d−r/Kd, where r is the ratio of the concentration of bound ligand to the total protein concentration and n is the number of binding sites. […] Microtubule assembly was recorded on a spectrophotometer with thermocontroler, The cuvettes (0.4 cm path) containing 100 mM PIPES, 2 mM EGTA, 1 mM MgCl2 and 1 mM GTP (G-PEM buffer), and 20 μM noscapine/DMSO were kept at room temperature before addition of tubulin and shifting to 37° C. […] The assembly was monitored by measuring the changes in turbidity at […]. intervals. […]

[2] = test system: E.G7-OVA cells; assay: Inhibition of E.G7-OVA tumor growth, i.p. or i.g. dosing; assay type: in vivo, C57BL/6 mice
Procedure: C57BL/6 mice were injected subcutaneously in the right flank with 2×10^6 E.G7-OVA cells. Three days later, mice were injected intraperitoneally, every day for three weeks, either with 200 μl saline (n=10), or with 3 mg noscapine dissolved in 200 μl saline (n=10). Third group of mice (n=10) was fed 3 mg noscapine via intragastric (i.g.) intubation using a 1 ml syringe fitted with a 20 gauge stainless steel ball point needle. After three weeks, all mice were sacrificed by cervical dislocation. Tumors were removed and weighed. Tumor weights were individually plotted and comparisons between control and treatment groups were analyzed by the Student's t test.

[3] = test system: OVA; assay: OVA-specific immune responses of noscapine-treated tumor survivors after OVA in CFA; assay type: in vivo, B6 mice; settings: for IFNγ / cytokine production by lymph node CD4+ T cells / OVA-specific antibody responses: tumor survivors vs control mice, ELISA
Procedure: (FIG. 2A) antibody responses were measured by ELISA with OVA coated microtiter plates,
(FIG. 2B) IFNγ production by lymphnode cells was measured by ELlSA by comparison with recombinant IFNγ and
(FIG. 2C) CTL responses were measured using ^51Cr labeled target cells.
Untreated, control B6 mice and noscapine treated mice whose tumors regressed, were injected with OVA in CFA to test whether the tumor had induced tolerance to OVA. […] Moreover, the OVA-specific CTL response of mice that recovered from the tumor was enhanced by 10- to 30-fold compared to the response of non-tumor bearing controls (FIG. 2C) (14).

[4] = test system: OVA; assay: Immune response to OVA in CFA in mice on oral noscapine; assay type: in vivo, B6 mice
Procedure: On day 0 all mice were injected with 200 μg OVA in CFA in the foot pad. Mice were bled individually on day 18 and their sera tested for antibody to OVA by ELISA (FIG. 5A). The mice were sacrificed on day 21 and their spleen cells cultured with E.G7-OVA for 6 days and their cytolytic activity measured with ^51Cr labeled cells (FIG. 5B).
The inventors believe that the damage caused to the mitotic apparatus of dividing cells must be repaired by normal cells but not the tumor cells at the tumor suppressive doses. Alternatively, the tumor suppressive effects of Noscapine may be unrelated to the anti-mitotic effect of the drug.

[5] = test system: human breast tumors; settings: nude mice; cited from earlier work
[6] = test system: Hela cells; assay: M phase arrest, alpha-tubulin immunofluorescence and flow cytometry; assay type: cell-based; settings: 20 μM Noscapine, 24 hr
Procedure: Hela cells were grown in DMEM supplemented with 10% fetal calf serum, 1 mM L-glutamine and 1% penicillin/−streptomycin. The tumor cell line E.G7-OVA (H-2^b) [Moore, M. W., et al., Cell 54,777 (1988)] was grown in RPMI 1640 with 10% fetal calf serum, 1% sodium pyruvate, 1 mM L-glutamine, 0.1% gentamycin, 50 μM β-mercaptoethanol. Cells were grown at 37° C. in a 5% CO2 atmosphere. Cell viability was assessed by trypan blue exclusion analysis. Cell numbers were determined using a hemacytometer. C57BL/6(H-2^b) mice, 8 to 12 weeks of age, were obtained from Harian Sprague Dawley, Inc. (Indiananapolis, Ind.). Mice were maintained on standard laboratory chow and water ad libitum in a temperature and light controlled environment. For immunofluorescence, both Hela and thymocyte cells were treated identically except the Hela cells were grown onto glass coverslips while EL4 thymocytes were put on glass coverslips after fixation. Cells in 10 ml medium were incubated with 2 μl DMSO or 20 μM Noscapine (2 μl 0.1 M DMSO solution) respectively. After 24 hr, cells were fixed with cold (−20° C.) methanol for 5 min., then rehydrated by PBS for 1 min. Nonspecific sites were blocked by incubating with 200 μl of 1% bovine serum albumin (BSA) in phosphate buffered saline (PBS) at 37° C. for 15 minutes. […] Cells were examined with a fluorescence microscope. […] The samples were read on a cytometer.

Sequence of bovine brain tubulin (P81947 whole entry): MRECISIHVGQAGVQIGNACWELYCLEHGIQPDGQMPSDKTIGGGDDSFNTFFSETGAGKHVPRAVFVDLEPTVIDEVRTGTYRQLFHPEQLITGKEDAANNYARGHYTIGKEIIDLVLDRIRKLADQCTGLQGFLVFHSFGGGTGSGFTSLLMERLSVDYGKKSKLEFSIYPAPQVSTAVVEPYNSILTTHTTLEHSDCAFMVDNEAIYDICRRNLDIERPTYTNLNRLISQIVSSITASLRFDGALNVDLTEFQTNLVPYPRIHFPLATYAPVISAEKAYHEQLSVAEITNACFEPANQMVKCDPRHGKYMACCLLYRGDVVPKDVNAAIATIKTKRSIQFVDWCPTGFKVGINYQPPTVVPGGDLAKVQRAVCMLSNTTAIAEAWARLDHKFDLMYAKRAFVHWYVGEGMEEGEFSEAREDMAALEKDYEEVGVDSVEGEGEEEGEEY
Sequence of bovine brain tubulin (Q6B856 whole entry): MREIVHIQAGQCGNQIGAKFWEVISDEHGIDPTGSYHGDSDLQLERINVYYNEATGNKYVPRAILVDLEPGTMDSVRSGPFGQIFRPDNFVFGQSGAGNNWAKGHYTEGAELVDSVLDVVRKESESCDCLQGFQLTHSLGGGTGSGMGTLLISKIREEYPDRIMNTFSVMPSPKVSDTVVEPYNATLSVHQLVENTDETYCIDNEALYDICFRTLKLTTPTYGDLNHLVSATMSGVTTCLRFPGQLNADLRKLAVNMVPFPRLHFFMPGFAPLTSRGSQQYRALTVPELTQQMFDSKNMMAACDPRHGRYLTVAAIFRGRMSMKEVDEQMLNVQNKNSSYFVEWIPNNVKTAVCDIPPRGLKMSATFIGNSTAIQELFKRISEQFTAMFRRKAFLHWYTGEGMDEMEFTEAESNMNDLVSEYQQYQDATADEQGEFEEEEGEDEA

## COc1ccc2c(c1OC)C(=O)O[C@@H]2[C@H]1c2c(cc3c(c2OC)OCO3)CCN1C [Noscapine]
[1]; Scatchard plot
  stoichiometry: 0.95±0.02 noscapine molecule per complex of tubulin subunit
[1]; excitation 278 nm
  quenching of tubulin fluorescence: fluorescence quenching of tubulin
[2]; 3 mg noscapine i.p. or i.g. every day for three weeks, vs saline
  tumor weight: significantly reduced tumor weight
[2]; given parenterally or by gastric gavage
  tumor cell growth and apoptosis of E.G7-OVA in vivo: arrested tumor cell growth and induced apoptosis
[3]; tumor survivors treated with Noscapine vs control mice, 51Cr labeled target cells
  CTL responses after immunization with OVA in CFA: enhanced
[3]
  IFNγ / cytokine production by lymph node CD4+ T cells: indistinguishable from control mice
  OVA-specific antibody responses: indistinguishable from control mice
[3]; listed as noscapine
  IFNγ / cytokine production by lymph node CD4+ T cells: identical
  OVA-specific antibody responses: identical
[4]; 1.5 mg noscapine/ml drinking water from day -7
  immune response to OVA in CFA: no detectable adverse effect
[4]; oral noscapine, ELISA day 18
  primary antibody response: did not inhibit
[4]; oral noscapine, spleen cells day 21, 51Cr labeled cells
  CTL response: did not inhibit
[5]
  regression of human breast tumors: caused regression
[6]
  M phase arrest of microtubule arrays: arrested in M phase
